Data as given in patent US20080226596A1, “Therapeutic compositions and methods useful in treating hepatitis” (priority 2006, published 2008).
Several values for one entry are separate records, joined by “and”; a condition that tells them apart may be missing. Equal values may be shown once.

How the values were obtained:
NB4 cells [1] = assay: NB4 cell cycle analysis; type: cell-based, human; details: 3 days; sodium stibogluconate 250 μg/ml, ATRA 1 μM
Protocol: The cell cycle was analyzed by flow cytometry after 3 days of culture of NB4 cells in the absence or presence of sodium stibogluconate (250 µg/ml) or ATRA (1 μM). Briefly, the cells were fixed in cold ethanol and incubated for 30 minutes at 4° C. in the dark with a solution of 50 […], 1 mg/ml RNase and 0.1% NP-40. Analysis was performed immediately after staining using the CELLFIT program (Becton Dickinson, Mountain View, Calif.).

HL-60 cells = assay: HL-60 differentiation, NBT reduction; type: cell-based, human; details: day 6; sodium stibogluconate 400 μg/ml, GM-CSF 25 ng/ml
Protocol: (§1) Differentiation of AML cell lines was assessed by their ability to produce superoxide as measured by reduction of NBT to formazan and by analysis of expression of CD11b surface marker by flow cytometry. For NBT reduction, each cell suspension was mixed with an equal volume of solution containing 1 mg/ml of NBT (Sigma) and 2.5 µg/ml of TPA for 30 minutes at 37° C. After incubation, cells containing the purple formazan deposits and cells devoid of NBT-reducing activity (white cells) in each sample were determined by counting 200 cells under microscope. Data is expressed as a percentage based on the following ratio: purple cells/purple+white cells. For analysis of cell surface antigens, cells were exposed to phycoerythrin (PE)-conjugated murine anti-human CD11b (DAKO Corp., Carpinteria, Calif.). Analysis of fluorescence was performed on a FACScan flow cytometer (Beckton Dickinson, Mountain View, Calif.).

U937 cells = assay: U937 differentiation, NBT reduction; type: cell-based, human; details: day 6; sodium stibogluconate 400 μg/ml, GM-CSF 25 ng/ml
Protocol: as §1

NB4 cells [2] = assay: NB4 differentiation, NBT reduction; type: cell-based, human; details: comparable conditions
Protocol: as §1

PRL-3 = target: T1, PRL-3 (Homo sapiens, UniProt O75365); assay: In vitro PTPase assay, recombinant PRL-3, DiFMUP substrate; type: biochemical; details: comparable conditions
T1 construct: GST (N); made in house; host or cells: DHSa (DH5a) bacteria
Protocol: (§2) In vitro PTPase assays were used to determine the effects of compounds on recombinant PTPases, following established procedures using a synthetic phosphotyrosine peptide or DiFMUP as the substrate (Pathak et al., J. Imumol. 167, 3391 (2001)). Briefly, individual PTPases (0.1 µg/reaction) in 50 μL of PTPase buffer (50 mM Tris, pH 7.4) were incubated at 22° C. for 10 minutes or as indicated in the absence or presence of inhibitory compounds. Substrates (0.2 mM phosphotyrosine peptide) were then added and allowed to react at 22° C. for 18 hrs. PTPase activity of individual reactions was measured by adding 100 µL of malachite green solution (UBI) and then quantifying the amounts of free phosphate cleaved by the PTPase from the peptide substrate by spectrometry (OD660 nm). PTPase assays using DiFMUP as a substrate were conducted following a previously described procedure (Matter, et al., Biochem. Biophys. Res. Comm. 283, 1061 (2001)). Relative PTPase activities were calculated based on the formula: (PTPase activity in the presence of an inhibitory compound/PTPase activity in the absence of the compound)× 100%. To assess the reversibility of PTPase inhibition, GST fusion proteins of the PTPases bound on glutathione beads (Pharmacia) were pre-incubated with cold Tris buffer (50 mM Tris, pH 7.0) or Tris buffer containing the inhibitor at 4° C. for 30 minutes. The beads were then washed three times in cold Tris buffer or not washed prior to subjecting to in vitro PTPase assays.

SHP-1 [3] = target: T2, SHP-1 (Mus musculus, UniProt P29351); assay: In vitro PTPase assay, recombinant GST/SHP-1; type: biochemical
T2 construct: made in house
Protocol: (§3) In vitro PTPase activities were measured using the commercial protein tyrosine phosphatase assay kit (Upstate Biotechnology, Inc. (“UBI”)) following established procedure known to one of skill in the art. This assay measures the in vitro dephosphorylation of a synthetic phosphotyrosine peptide of the sequence Arg-Arg-Leu-Ile-Glu-Asp-Ala-Gle-Tyr-Ala-Ala-Arg-Gly, wherein the tyrosine is phosphorylated (SEQ ID NO: 3). Briefly, 0.01 µg of GST/PTPase fusion proteins was incubated in 50 μL of Tris buffer (10 mM Tris, pH 7.4) containing different concentrations of inhibitors or chemicals (0-1,000 μg/ml) at 22° C. for 10 minutes, followed by addition of 0.2 mM of the phosphotyrosine peptide and incubation at 22° C. for 18 hours. 100 μL of Malachite Green solution was added and incubated for 5 minutes, and the absorbance at 660 nm was measured after 5 minutes.
as §2
(§4) In vitro PTPase assays were used to determine the effects of levamisole (Sigma), pentamidine (American Pharmaceutical Partners, Inc.), and ketoconazole (Sigma) on recombinant PTPases, following established procedures (Pathak et al., J. Imumol. 167, 3391 (2001); Pathak et al., Leukemia 16, 2285 (2002), Yi et al., J. Immunol. 169, 5978 (2002)) using a synthetic phosphotyrosine peptide or DiFMUP as the substrate as detailed above in section I.A.2.

PTP1B = target: T3, PTP1B (Homo sapiens, UniProt P18031); assay: In vitro PTPase assay, GST/PTP1B; type: biochemical; details: 1-1,000 μg/ml
T3 construct: GST; purchased Upstate Biotechnology Inc. (Lake Placid, N.Y.)
Protocol: as §3, §4

[4] = test system: Jak2/Stat5 tyrosine phosphorylation; assay: IL-3-induced Jak2/Stat5 tyrosine phosphorylation in Baf3 cells; type: cell-based, murine; details: potassium antimonyl tartrate
Protocol: For induction of cellular protein phosphorylation by sodium stibogluconate or pervanadate, Baf3 cells were incubated in 0.1% FCS-RPMI 1640 medium at 37° C. for 16 hours. The cells were then washed twice in RPMI 1640 medium and incubated with sodium stibogluconate or pervanandate (0.1 mM) for various times prior to termination by lysing cells in cold lysis buffer (50 mM Tris, pH 7.4; 150 mM NaCl; 0.2 mM Na3VO4; 20 mm NaF; 1% Nonidet P-40; 2 mM PMSF; 20 µg/ml of Aprotinin and 1 mM of sodium molybdic acid). To determine the effect of sodium stibogluconate or potassium antimonyl tartrate on IL-3-induced Jak/Stat phosphorylation, Baf3 cells were deprived of the growth factor for 16 hours in 0.1% FCS RPMI 1640 medium and then incubated with or without sodium stibogluconate or potassium antimonyl tartrate for 10 minutes. IL-3 was next added to the cell suspension and incubated for various times. The Cells were then harvested and lysed in cold lysis buffer at 4° C. for 45 minutes. Total cell lysates (TCL) were separated in SDS-PAGE gels, blotted onto nitrocellulose membrane (Schleicher & Schuell), probed with specific antibodies and detected using an enhanced chemiluminescence kit (ECL, Amersham, Arlington Heights, Ill.).

Baf3 cells = assay: Baf3 cell proliferation assay; type: cell-based, murine
Protocol: The murine hematopoietic cell line Baf3 was maintained in RPMI 1640 medium supplemented with 10% fetal calf serum (FCS) and murine IL-3 (20 units/ml) as described previously in Damen et al., J. Biol. Chem. 270, 23402 (1995). Human myeloid cell line TF-1 was maintained in RPMI 1640 supplemented with 10% FCS and 40 ng/ml of recombinant human GM-CSF as described previously in Thomassen et al., Clin. Immunol. 95, 85 (2000). For cell proliferation assays, cells were washed in 10% FCS medium twice, resuspended in 10% FCS medium, incubated at 37° C. for 16 hours, and then cultured at 37° C. in 10% FCS medium containing various amounts of cytokines, sodium stibogluconate, or potassium antimonyl tartrate for 3-6 days as indicated. The cell numbers in proliferation assays were determined by an MTT assay or by microscopic cell counting as indicated.

MKP1 = target: T4, MKP1 (Homo sapiens, UniProt P28562); assay: In vitro PTPase assay, GST/MKP1; type: biochemical
T4 construct: GST (N); made in house; host or cells: DH5a bacteria
T4 sequence (P28562 1-367): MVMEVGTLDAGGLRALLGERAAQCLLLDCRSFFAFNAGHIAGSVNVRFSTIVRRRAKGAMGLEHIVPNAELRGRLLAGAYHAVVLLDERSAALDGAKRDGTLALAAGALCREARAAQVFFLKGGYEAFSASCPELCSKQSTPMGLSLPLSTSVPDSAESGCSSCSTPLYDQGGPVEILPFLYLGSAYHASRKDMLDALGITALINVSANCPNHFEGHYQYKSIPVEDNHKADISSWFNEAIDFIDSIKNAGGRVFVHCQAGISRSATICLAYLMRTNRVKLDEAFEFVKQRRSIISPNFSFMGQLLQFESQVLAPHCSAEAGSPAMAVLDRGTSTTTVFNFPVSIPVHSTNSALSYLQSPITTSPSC
Protocol: as §3, §4

GSTm8 = assay: In vitro PTPase assay, GSTm8; type: biochemical; details: 3-4 μg/ml or 10-100 μg/ml
Excerpt: as §4

SHP-1 [5] = target: T2, SHP-1; assay: Reversibility of SHP-1 inhibition (washing of bead-bound GST/SHP-1); type: biochemical; details: pre-incubated 4° C. 30 minutes, washed 3 times
Excerpt: The beads were then either subjected to in vitro PTPase assays or washed 3 times in Tris buffer then subjected to in vitro PTPase assays.

T2 sequence (P29351 whole entry): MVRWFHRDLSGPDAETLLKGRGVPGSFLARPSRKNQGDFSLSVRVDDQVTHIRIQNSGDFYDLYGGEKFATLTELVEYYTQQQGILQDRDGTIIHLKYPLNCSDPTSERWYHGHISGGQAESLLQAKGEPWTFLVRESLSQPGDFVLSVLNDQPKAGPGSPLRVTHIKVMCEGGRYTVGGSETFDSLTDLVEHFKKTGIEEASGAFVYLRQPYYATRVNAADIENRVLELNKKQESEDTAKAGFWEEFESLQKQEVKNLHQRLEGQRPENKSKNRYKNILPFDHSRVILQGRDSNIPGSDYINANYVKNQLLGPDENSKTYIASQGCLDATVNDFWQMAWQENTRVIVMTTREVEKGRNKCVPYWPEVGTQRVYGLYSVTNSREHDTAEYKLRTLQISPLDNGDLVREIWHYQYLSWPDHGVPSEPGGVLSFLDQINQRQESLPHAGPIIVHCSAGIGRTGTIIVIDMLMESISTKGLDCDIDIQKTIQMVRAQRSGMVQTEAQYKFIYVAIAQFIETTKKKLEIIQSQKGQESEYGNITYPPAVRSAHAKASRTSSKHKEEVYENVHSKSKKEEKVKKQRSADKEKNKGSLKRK
T1 sequence (O75365 whole entry): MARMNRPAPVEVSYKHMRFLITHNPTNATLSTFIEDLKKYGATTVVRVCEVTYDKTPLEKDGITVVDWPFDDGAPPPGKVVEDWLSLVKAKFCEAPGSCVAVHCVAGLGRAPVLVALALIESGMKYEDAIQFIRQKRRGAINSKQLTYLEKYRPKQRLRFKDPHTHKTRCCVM
T3 sequence (P18031 whole entry, species assumed): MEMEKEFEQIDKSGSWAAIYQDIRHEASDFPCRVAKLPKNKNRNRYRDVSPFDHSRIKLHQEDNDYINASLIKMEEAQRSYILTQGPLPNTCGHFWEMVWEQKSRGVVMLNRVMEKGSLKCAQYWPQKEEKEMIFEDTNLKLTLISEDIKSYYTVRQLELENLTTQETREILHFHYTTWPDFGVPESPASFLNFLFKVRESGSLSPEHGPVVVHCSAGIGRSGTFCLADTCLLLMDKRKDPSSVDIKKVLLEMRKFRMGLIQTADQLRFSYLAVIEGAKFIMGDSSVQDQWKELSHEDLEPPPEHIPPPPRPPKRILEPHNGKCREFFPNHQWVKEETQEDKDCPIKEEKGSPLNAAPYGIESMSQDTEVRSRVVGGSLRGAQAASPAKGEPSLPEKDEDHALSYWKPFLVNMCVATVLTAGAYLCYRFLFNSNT

With `CC1=C(/C=C/C(C)=C/C=C/C(C)=C/C(=O)O)C(C)(C)CCC1` [ATRA, All-trans-retinoic acid] the “NB4 cell cycle effect” value (NB4 cells [1]) was “arrested at G1 phase”, the “NBT-positive (differentiated) HL-60 cells” value (HL-60 cells) was 90% and the “NBT-positive (differentiated) U937 cells” value (U937 cells) was 72% and 73%.

GM-CSF: recombinant human GM-CSF was tested, and the “effect of GM-CSF on NB4 differentiation” value (NB4 cells [2]) was “no detectable effect”, the “NBT-positive (differentiated) HL-60 cells” value (HL-60 cells) was 8-10% and the “NBT-positive (differentiated) U937 cells” value (U937 cells) was 8-10%.

In the case of `[Na+].[Na+].[Na+].[O]=[V]([O-])([O-])[O-]` [sodium orthovanadate], the “inhibition of PRL-3 with DiFMUP substrate” value (PRL-3) is reported as “less effective than sodium stibogluconate”.

`O.O.O.O=C([O-])[C@H]([O-])[C@@H]([O-])C(=O)[O-].O=C([O-])[C@H]([O-])[C@@H]([O-])C(=O)[O-].[K+].[K+].[Sb+3].[Sb+3]` [potassium antimonyl tartrate] was tested, and the “inhibition of SHP-1” value (SHP-1 [3]; 1-1,000 μg/ml) was “no detectable inhibition”, the “inhibition of PTP1B” value (PTP1B) was “no detectable inhibition” and the “IL-3-induced Stat5 phosphorylation” value [4] was “failed to enhance IL-3-induced Stat5 phosphorylation”. The “toxicity against Baf3 cells” value (Baf3 cells) was “marked toxicity against Baf3 cells” and the “IL-3-induced proliferation of Baf3 cells” value (Baf3 cells; IL-3 10 units/ml, three days) was “failed to enhance”.

For `c1ccc([C@H]2CN3CCSC3=N2)cc1` [levamisole], the “inhibitory activity against SHP-1” value (SHP-1 [3]; 3-4 μg/ml or 10-100 μg/ml) was “no obvious inhibitory activity”, the “inhibition of MKP1” value (MKP1) was “substantial inhibition” and the “inhibitory activity against GSTm8” value (GSTm8) was “no obvious inhibitory activity”.

`Cc1ccc(C(=O)Nc2ccc(S(=O)(=O)O)c3cc(S(=O)(=O)O)cc(S(=O)(=O)O)c23)cc1NC(=O)c1cccc(NC(=O)Nc2cccc(C(=O)Nc3cc(C(=O)Nc4ccc(S(=O)(=O)O)c5cc(S(=O)(=O)O)cc(S(=O)(=O)O)c45)ccc3C)c2)c1` [Suramin] was tested, and the “inhibition of SHP-1 compared with sodium stibogluconate” value (SHP-1 [3]; under comparable conditions) was “less effective”, the “inhibition of GST/SHP-1 after washing” value (SHP-1 [5]) was “almost completely removed by the washing process” and the “inhibition of PRL-3 with DiFMUP substrate” value (PRL-3) was “less effective than sodium stibogluconate”.
